The conditions of data set [1]: cited from earlier work.
The conditions of data set [2]: cited from earlier work; for share of the total dose eliminated as metabolite: oral administration of Ivacaftor.
In a further data set the test system is CYP3A. Conditions: in-vitro and clinical studies, humans; cited from earlier work.
The next data set addresses CFTR protein (Homo sapiens, UniProt P13569). Conditions: fraction of the potency of Ivacaftor; cited from earlier work.
Data set [3] in a line: Apparent solubility by UV-VIS after 100 nm filtration. The class given is physicochemical. Conditions: ultrapurified water, thermodynamic from solid, comparative formulation study, read-out: apparent solubility (comparative measurements, FIG. 15). On the procedure:
The solid complex Ivacaftor formulations were dispersed in ultrapurified water in 1-10 mg/mL Ivacaftor equivalent concentration range. The resulting solutions were filtered by 100 nm disposable syringe filter. The Ivacaftor content in the filtrate was measured by UV-Vis spectrophotometry and the apparent solubility was calculated. The filtrate may contain Ivacaftor complex particles which could not be filtrated out using 100 nm pore size filter.
The solid complex Ivacaftor formulations were dispersed in ultrapurified water in 1 mg/mL Ivacaftor equivalent concentration range. The resulting solutions were filtered by 100 nm disposable syringe filter. The Ivacaftor content in the filtrate was measured by UV-Vis spectrophotometry and the apparent solubility was calculated. The filtrate may contain Ivacaftor complex particles which could not be filtrated out using 100 nm pore size filter.

Where only a bound is given, the exact number is not on record here.

Sequence of CFTR protein (P13569 whole entry): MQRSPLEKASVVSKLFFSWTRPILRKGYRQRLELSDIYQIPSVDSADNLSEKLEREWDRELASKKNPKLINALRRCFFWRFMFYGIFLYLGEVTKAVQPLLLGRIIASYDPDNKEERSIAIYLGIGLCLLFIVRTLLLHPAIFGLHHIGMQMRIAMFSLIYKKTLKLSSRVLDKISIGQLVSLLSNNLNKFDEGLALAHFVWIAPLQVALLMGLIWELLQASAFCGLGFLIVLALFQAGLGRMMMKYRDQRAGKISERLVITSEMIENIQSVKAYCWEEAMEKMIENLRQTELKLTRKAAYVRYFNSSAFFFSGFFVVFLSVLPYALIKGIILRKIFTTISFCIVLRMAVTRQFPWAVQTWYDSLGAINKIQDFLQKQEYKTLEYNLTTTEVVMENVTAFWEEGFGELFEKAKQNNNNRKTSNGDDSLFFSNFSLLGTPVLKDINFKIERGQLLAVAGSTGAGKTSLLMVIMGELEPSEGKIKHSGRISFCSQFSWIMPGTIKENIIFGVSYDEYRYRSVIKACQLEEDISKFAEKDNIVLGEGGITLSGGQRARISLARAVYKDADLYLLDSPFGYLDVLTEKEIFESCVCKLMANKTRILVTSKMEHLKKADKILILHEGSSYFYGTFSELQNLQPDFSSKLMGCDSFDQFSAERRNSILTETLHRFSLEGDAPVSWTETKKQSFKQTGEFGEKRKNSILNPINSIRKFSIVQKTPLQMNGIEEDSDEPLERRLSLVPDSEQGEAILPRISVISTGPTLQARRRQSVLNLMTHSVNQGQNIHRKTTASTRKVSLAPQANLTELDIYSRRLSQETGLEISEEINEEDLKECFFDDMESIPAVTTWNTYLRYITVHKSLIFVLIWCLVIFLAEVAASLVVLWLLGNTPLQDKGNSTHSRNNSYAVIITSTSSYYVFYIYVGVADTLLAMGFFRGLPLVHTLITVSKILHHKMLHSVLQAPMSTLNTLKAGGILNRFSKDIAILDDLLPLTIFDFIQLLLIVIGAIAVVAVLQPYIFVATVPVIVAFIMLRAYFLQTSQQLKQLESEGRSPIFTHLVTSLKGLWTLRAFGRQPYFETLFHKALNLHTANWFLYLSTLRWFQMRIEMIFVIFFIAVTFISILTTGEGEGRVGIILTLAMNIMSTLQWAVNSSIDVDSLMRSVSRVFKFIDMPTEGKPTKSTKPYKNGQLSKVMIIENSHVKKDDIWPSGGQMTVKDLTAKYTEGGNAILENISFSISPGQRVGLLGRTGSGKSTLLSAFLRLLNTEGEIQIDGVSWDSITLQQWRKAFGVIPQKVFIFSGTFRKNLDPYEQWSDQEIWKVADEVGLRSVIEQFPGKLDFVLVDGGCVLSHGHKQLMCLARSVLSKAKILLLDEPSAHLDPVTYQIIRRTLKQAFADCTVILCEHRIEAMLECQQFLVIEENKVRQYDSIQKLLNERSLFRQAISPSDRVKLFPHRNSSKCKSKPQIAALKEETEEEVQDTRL

As for `CC(C)(C)c1cc(C(C)(C)C)c(NC(=O)c2c[nH]c3ccccc3c2=O)cc1O` [Ivacaftor, N-(2,4-di-tert-butyl-5-hydroxyphenyl)-1,4-dihydro-4-oxoquinoline-3-carboxamide], the solubility in water in data set [1] is less than 0.05 microgram/mL. For the same compound, in data set [2] (human, in vivo), the “mean apparent clearance (CL/F), healthy subjects versus patients with CF” value was “similar”. In data set [2] (oral administration), the “eliminated in the feces after metabolic conversion” value was 87.8% and the “urinary excretion as unchanged parent” value is recorded as “negligible”. Further, the “tmax (peak plasma concentrations)” value in data set [2] (single 150 mg oral dose, healthy volunteers, fed state) is on record as “approximately 4 hours”. The “mean apparent volume of distribution (Vz/F), healthy subjects versus patients with CF” value in data set [2] (single dose of 275 mg of KALYDECO, fed state) was “similar”. In data set [2] (single dose), the apparent terminal half-life entry was “approximately 12 hours”. Also, the metabolism entry with CYP3A was “primarily metabolized by CYP3A”.

For the compound `CC(C)(C)c1cc(C(C)(C)CO)c(O)cc1NC(=O)c1c[nH]c2ccccc2c1=O` [M1], the “share of the total dose eliminated as metabolite” value in data set [2] is given as 22%. In addition, at CFTR protein, the “potency relative to Ivacaftor” value is “approximately one-sixth”.

With `CC(C)(C)c1cc(C(C)(C)C(=O)O)c(O)cc1NC(=O)c1c[nH]c2ccccc2c1=O` [M6], the “share of the total dose eliminated as metabolite” value in data set [2] was 43%. In addition, the “potency relative to Ivacaftor” value at CFTR protein is reported as “less than one-fiftieth”.

Turning to `CC(C)(C)c1cc(C(C)(C)C)c(NC(=O)c2c[nH]c3ccccc3c2=O)cc1O` [crystalline Ivacaftor, N-(2,4-di-tert-butyl-5-hydroxyphenyl)-1,4-dihydro-4-oxoquinoline-3-carboxamide], in data set [3], the solubility is less than 100 µg/mL.

By solubility is commonly meant the concentration that dissolves in the medium under given conditions.
